Measurements from patent US11291739B2, “System and methods for sterilizing enclosed spaces using ozone” (Gene Therapy Systems, Inc., priority 2015, dated 2022).
Where two headings read alike, the source gives them in different places.

How the values were obtained:
[1] = cited from earlier work
[2] = tested on: bacteriophage T1; experiment: Effect of ozone on bacteriophage T1 spotted on LB agar plates; format: cell-based; details: ozone 4 hours, peak less than 150 ppm, silver-coated mesh generator; 10^6-10^9 pfu/mL spots; DH5 E. coli overlay, 72 hours
Protocol: In Experiment 2, the effect of ozone on bacteriophage T1 was studied. In the experiment, 2.5 μL of purified bacteriophage T1 was spotted in four quadrants of two LB agar plates—a test plate 610 and a control plate 620, shown in FIG. 11. The bacteriophage concentrations on each of the two plates were (clockwise from the spot in the upper right quadrant): 10^9 pfu/mL, 10^8 pfu/mL, 10^7 pfu/mL, and 10^6 pfu/mL.
The test plate 610 was placed in an incubator chamber containing both an ozone generator and an ozone degrader. The ozone generator included two ceramic plates surrounded substantially by a silver-coated metal mesh. The ozone generator was activated and the test plate 610 was treated with ozone for 4 hours. The ozone generator was then turned off, and the ozone degrader, formed of activated carbon filters, accelerated the conversion of ozone to oxygen. The peak ozone concentration level generated within the incubator chamber was less than 150 ppm ozone.
The control plate 620 was placed in a different incubator chamber and left untreated. After the ozone generation and degradation cycle completed in the incubator chamber containing the test plate 610, 1 mL of stationary DH5 E. coli bacteria and top agar were added to each plate and incubated at room temperature for 72 hours. The photograph in FIG. 11 was taken immediately following this 72-hour period.

[3] = Ozone breakdown over time in enclosed cell culture chamber (calibrated ozone analyzer); format: physicochemical
Protocol: In Experiment 1, an 1800 mg/hour ozone generator was placed in a 5.5 cubic feet cell culture. The ozone level within the chamber was monitored using a calibrated ozone analyzer. Ozone measurements were captured every 10 seconds. The experimental results, as represented by ozone level over time, are provided in the line graph of FIG. 10A. In test #1, represented by line 510, the ozone generator was run for 80 minutes and achieved a peak ozone concentration within the cell culture chamber of approximately 325 ppm. After the ozone generator was turned off, the ozone was left to break down naturally within the enclosed cell culture chamber. It took approximately 28 hours for the ozone to breakdown to 0.01 ppm ozone.
In tests #2 and #3, represented by lines 520 and 530, respectively, both the ozone generator and an ozone degrader were present in the cell culture chamber. The ozone degrader was formed of three activated carbon filters. With the ozone degrader present, the ozone generator was unable to achieve the peak ozone concentration seen in test #1. In tests #2 and #3, the ozone generator was run for 120 minutes and the concentration of ozone noticeably plateaued. The air within the cell culture chamber reached a peak ozone concentration of approximately 140-150 ppm ozone. […]

[4] = tested on: E. coli K-12 cells (strain DH5); experiment: Sterilization efficacy on LB agar plates loaded with E. coli in cell culture chamber; format: cell-based
Protocol: In tests #2 and #3, represented by lines 520 and 530, respectively, both the ozone generator and an ozone degrader were present in the cell culture chamber. The ozone degrader was formed of three activated carbon filters. With the ozone degrader present, the ozone generator was unable to achieve the peak ozone concentration seen in test #1. In tests #2 and #3, the ozone generator was run for 120 minutes and the concentration of ozone noticeably plateaued. The air within the cell culture chamber reached a peak ozone concentration of approximately 140-150 ppm ozone. After the ozone generator was turned off, the ozone began to break down at an accelerated rate with the activated carbon filters present. In both tests #2 and #3, the ozone levels reached a level of 0.01 ppm ozone within 15 minutes.
While the peak ozone concentrations reached in tests #2 and #3 were noticeably lower than the peak ozone concentration of test #1, the ozone levels in tests #2 and #3 were at least sufficient to achieve sterilization. In each of tests #2 and #3, sterilization efficacy was measured with the assistance of LB agar plates loaded with E. coli bacteria. As part of the experiment, E. coli K-12 cells (strain DH5) were grown overnight at 37° C. and the stationary phase was reached. […] The quantity of E. coli present was then analyzed and a photograph of each plate was taken.

Structure (SMILES): O=[O+][O-] [ozone]
- half-life ([1]; in the air): 36 to 72 h
- half-life ([1]; in water): 0.13 to 0.5 h
- survival of the T1-phage [2]: negligible survival
- time for ozone to break down to 0.01 ppm ([3]; test #1, natural breakdown from approximately 325 ppm, no ozone degrader, 5.5 cubic feet chamber): approximately 28 hours
- time for ozone levels to reach 0.01 ppm ([3]; tests #2 and #3, from approximately 140-150 ppm, three activated carbon filters present): ≤ 15 min
- E. coli kill rate ([4]; test #2, ozone 120 minutes, peak approximately 140-150 ppm, then 15 minutes degradation, plates incubated at 37° C. overnight): 100%
- quantity of E. coli present after treatment ([4]; test #2 test dish, control dish showed confluent growth): no E. coli was detected
